Experimental data reported in patent US12122833B2, “Combination therapies of HDAC inhibitors and PD-1 inhibitors” (HUYABIO International, LLC, priority 2016, dated 2024).

Assays:
[1] = molecular target: HDAC 2 (Homo sapiens, UniProt Q92769); conditions: reported by Ning et al.; cited from earlier work
[2] = oral administration; cited from earlier work
[3] = molecular target: T1, HDAC 10 (Homo sapiens, UniProt Q969S8); conditions: reported by Ning et al.; cited from earlier work
T1 sequence (Q969S8 1-669): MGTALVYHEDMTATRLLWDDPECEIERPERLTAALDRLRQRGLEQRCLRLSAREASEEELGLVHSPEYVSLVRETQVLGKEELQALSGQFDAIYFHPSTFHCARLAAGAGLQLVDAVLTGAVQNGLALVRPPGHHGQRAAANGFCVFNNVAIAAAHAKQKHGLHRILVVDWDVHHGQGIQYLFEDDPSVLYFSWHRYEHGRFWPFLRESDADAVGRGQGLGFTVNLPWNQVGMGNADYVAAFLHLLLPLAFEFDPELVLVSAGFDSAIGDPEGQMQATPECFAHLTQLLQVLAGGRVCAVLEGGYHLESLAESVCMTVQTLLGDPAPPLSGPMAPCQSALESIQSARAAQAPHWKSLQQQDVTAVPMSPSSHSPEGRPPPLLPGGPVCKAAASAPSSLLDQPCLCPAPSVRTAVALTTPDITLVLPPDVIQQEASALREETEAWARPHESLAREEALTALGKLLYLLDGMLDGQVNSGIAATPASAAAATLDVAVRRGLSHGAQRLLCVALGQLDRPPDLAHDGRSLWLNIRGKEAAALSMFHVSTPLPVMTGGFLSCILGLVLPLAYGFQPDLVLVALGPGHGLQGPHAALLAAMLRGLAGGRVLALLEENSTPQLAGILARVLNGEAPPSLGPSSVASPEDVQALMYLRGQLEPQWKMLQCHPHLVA

[4] = tested on: MC38 murine colon carcinoma cells; assay: Example 2: tumor growth delay, MC38 tumors (5×10^5 cells) in C57BL/6 mice; type: in vivo, mouse; conditions: HBI-8000 50 mg/kg p.o. qd×21, anti-PD-1 5 mg/kg i.p. biwk×3
Protocol: Animals that exited the study for tumor volume endpoint were documented as euthanized for tumor progression (TP), with the date of euthanasia. The time to endpoint (TTE) for analysis was calculated for each mouse by the following equation:
[formula] where TTE is expressed in days, endpoint volume is expressed in mm^3, b is the intercept, and m is the slope of the line obtained by linear regression of a log-transformed tumor growth data set. The data set consisted of the first observation that exceeded the endpoint volume used in analysis and the three consecutive observations that immediately preceded the attainment of this endpoint volume. The calculated TTE is usually less than the TP date, the day on which the animal was euthanized for tumor burden. […] In instances in which the log-transformed calculated TTE preceded the day prior to reaching endpoint or exceeded the day of reaching tumor volume endpoint, a linear interpolation was performed to approximate the TTE. […]
Treatment Outcome: Treatment outcome was evaluated from tumor growth delay (TGD), which is defined as the increase in the median time to endpoint (TTE) in a treatment group compared to the control group: TGD=T−C expressed in days, or as a percentage of the median TTE of the control group: […]
Treatment Efficacy: Treatment efficacy may be determined from the tumor volumes of animals remaining in the study on the last day. […]

[5] = molecular target: HDAC 1 (Homo sapiens, UniProt Q13547); conditions: reported by Ning et al.; cited from earlier work
Sequence of HDAC 1 (Q13547 whole entry): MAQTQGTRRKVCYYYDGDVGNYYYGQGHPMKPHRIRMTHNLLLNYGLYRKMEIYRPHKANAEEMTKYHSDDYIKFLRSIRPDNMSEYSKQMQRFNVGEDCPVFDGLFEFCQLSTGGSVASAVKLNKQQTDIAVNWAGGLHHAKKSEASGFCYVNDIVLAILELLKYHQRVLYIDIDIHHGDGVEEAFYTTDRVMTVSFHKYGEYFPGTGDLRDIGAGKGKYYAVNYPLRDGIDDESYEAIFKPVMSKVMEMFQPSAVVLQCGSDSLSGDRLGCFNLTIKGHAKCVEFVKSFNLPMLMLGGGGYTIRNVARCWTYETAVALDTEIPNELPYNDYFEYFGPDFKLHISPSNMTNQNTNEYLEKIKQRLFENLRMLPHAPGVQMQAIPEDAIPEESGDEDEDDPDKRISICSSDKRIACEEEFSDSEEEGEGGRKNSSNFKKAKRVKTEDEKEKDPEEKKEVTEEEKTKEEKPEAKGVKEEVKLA

Sequence of HDAC 2 (Q92769 whole entry): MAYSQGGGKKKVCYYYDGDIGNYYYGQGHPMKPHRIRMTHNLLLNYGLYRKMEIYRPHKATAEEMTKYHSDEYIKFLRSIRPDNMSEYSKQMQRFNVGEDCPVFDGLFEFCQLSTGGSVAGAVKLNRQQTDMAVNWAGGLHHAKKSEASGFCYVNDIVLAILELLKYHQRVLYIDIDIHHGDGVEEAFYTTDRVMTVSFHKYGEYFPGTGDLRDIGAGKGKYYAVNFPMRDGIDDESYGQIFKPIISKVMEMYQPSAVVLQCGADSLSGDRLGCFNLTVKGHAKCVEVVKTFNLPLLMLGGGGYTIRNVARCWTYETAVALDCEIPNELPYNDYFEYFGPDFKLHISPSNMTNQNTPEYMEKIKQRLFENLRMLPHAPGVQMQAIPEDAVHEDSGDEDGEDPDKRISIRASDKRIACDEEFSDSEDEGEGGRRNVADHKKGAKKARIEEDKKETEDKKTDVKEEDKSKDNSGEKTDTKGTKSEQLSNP

Nc1cc(F)ccc1NC(=O)c1ccc(CNC(=O)/C=C/c2cccnc2)cc1 [HBI-8000, N-(2-amino-4-fluorophenyl)-4-[[[(2E)-1-oxo-3-(3-pyridinyl)-2-propen-1-yl]amino]methyl]benz amide]
activity at HDAC 2 compared with Entinostat [1]: more active than Entinostat | inhibition of HDAC 2 [1]: low nanomolar concentrations | t1/2 [2]: about 17 hours | activity at HDAC 10 compared with Entinostat [3]: more active than Entinostat | inhibition of HDAC 10 [3]: low nanomolar concentrations | Median TTE ([4]; endpoint 1000 mm^3 or Day 50, n=10): 19.4 days | % TGD ([4]; vs vehicle): 19% | activity at HDAC 1 compared with Entinostat [5]: more active than Entinostat | inhibition of HDAC 1 [5]: low nanomolar concentrations
